# Target: recombinant human SAE enzyme (Homo sapiens (Human), UniProt Q9UBT2)
# Assay: SAE HTRF enzyme assay
# Format: biochemical
# Details: for Percent Inhibition: SAE inhibition at compound concentration 0.111 μM; for IC50: SAE inhibition, class symbols, legend in nM
# Procedure, shortened: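 Sumoylation of Ubc9-GST by SAE was followed at low ATP (0.5 μM), pH 7.5, 24° C. for 105 min. Product was detected by HTRF with antibody pairs against Flag and GST tags.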
# recombinant human SAE enzyme, sequence (Q9UBT2 whole entry): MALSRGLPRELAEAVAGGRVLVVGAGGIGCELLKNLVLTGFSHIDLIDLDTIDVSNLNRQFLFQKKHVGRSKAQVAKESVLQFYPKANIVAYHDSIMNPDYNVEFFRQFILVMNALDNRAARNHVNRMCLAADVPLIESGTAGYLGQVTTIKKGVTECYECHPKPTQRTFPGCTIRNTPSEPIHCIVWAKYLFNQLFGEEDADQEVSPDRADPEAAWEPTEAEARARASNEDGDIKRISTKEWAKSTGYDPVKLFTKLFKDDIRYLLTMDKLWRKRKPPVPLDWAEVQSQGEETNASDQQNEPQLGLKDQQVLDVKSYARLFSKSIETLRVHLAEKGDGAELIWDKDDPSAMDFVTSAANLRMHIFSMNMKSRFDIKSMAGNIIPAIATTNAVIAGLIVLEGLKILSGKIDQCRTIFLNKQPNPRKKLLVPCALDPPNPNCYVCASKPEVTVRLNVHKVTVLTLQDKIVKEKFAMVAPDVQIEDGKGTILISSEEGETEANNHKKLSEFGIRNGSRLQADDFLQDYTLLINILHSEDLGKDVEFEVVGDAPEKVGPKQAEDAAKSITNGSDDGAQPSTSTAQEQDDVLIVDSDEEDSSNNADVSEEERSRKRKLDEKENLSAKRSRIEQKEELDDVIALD
# recombinant human SAE enzyme, sequence (Q9UBE0 whole entry partner): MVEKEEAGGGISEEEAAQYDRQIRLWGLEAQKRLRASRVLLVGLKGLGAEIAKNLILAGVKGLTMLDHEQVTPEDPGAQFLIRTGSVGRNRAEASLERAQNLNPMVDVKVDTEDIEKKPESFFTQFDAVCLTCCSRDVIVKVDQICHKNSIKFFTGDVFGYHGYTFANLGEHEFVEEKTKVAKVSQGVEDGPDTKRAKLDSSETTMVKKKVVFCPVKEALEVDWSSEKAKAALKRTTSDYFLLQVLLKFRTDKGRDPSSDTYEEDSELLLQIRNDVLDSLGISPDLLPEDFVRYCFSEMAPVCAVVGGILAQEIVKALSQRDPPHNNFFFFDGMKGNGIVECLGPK
SMILES,Percent Inhibition,IC50
"Cc1sc(C(=O)c2cncnc2N[C@@H]2C[C@H](COS(N)(=O)=O)[C@@H](O)C2)cc1C1OCCc2ccc(C(F)(F)F)nc21 (single isomer, unassigned) [I-297b, [(1R,2S,4R)-2-hydroxy-4-{[5-({5-methyl-4-[(8S)-2-(trifluoromethyl)-5,8-dihydro-6H-pyrano[3,4-b]pyridin-8-yl]-2-thienyl}carbonyl)pyrimidin-4-yl]amino}cyclopentyl]methyl sulfamate or [(1R,2S,4R)-2-hydroxy-4-{[5-({5-methyl-4-[(8R)-2-(trifluoromethyl)-5,8-dihydro-6H-pyrano[3,4-b]pyridin-8-yl]-2-thienyl}carbonyl)pyrimidin-4-yl]amino}cyclopentyl]methyl sulfamate]",99%,< 10 nM
"Cc1sc(C(=O)c2cncnc2N[C@@H]2C[C@H](COS(N)(=O)=O)[C@@H](O)C2)cc1C1OCCc2oc(Cl)cc21 (single isomer, unassigned) [I-298a, [(1R,2S,4R)-4-{[5-({4-[(4R)-2-chloro-6,7-dihydro-4H-furo[3,2-c]pyran-4-yl]-5-methyl-2-thienyl}carbonyl)pyrimidin-4-yl]amino}-2-hydroxycyclopentyl]methyl sulfamate or [(1R,2S,4R)-4-{[5-({4-[(4S)-2-chloro-6,7-dihydro-4H-furo[3,2-c]pyran-4-yl]-5-methyl-2-thienyl}carbonyl)pyrimidin-4-yl]amino}-2-hydroxycyclopentyl]methyl sulfamate]",34%,100 to 1000 nM
"Cc1sc(C(=O)c2cncnc2N[C@@H]2C[C@H](COS(N)(=O)=O)[C@@H](O)C2)cc1C1OCCc2oc(Cl)cc21 (single isomer, unassigned) [I-298b, [(1R,2S,4R)-4-{[5-({4-[(4R)-2-chloro-6,7-dihydro-4H-furo[3,2-c]pyran-4-yl]-5-methyl-2-thienyl}carbonyl)pyrimidin-4-yl]amino}-2-hydroxycyclopentyl]methyl sulfamate or [(1R,2S,4R)-4-{[5-({4-[(4S)-2-chloro-6,7-dihydro-4H-furo[3,2-c]pyran-4-yl]-5-methyl-2-thienyl}carbonyl)pyrimidin-4-yl]amino}-2-hydroxycyclopentyl]methyl sulfamate]",98%,< 10 nM
"NS(=O)(=O)OC[C@H]1C[C@@H](Nc2ncncc2C(=O)c2cc([C@@H]3NCCc4ccc(Cl)cc43)c(Cl)o2)C[C@@H]1O (single isomer, unassigned) [I-299a, {(1R,2S,4R)-4-[(5-{5-chloro-4-[(1R)-7-chloro-1,2,3,4-tetrahydroisoquinolin-1-yl]-2-furoyl}pyrimidin-4-yl)amino]-2-hydroxycyclopentyl}methyl sulfamate or {(1R,2S,4R)-4-[(5-{5-chloro-4-[(1S)-7-chloro-1,2,3,4-tetrahydroisoquinolin-1-yl]-2-furoyl}pyrimidin-4-yl)amino]-2-hydroxycyclopentyl}methyl sulfamate]",101%,< 10 nM
"NS(=O)(=O)OC[C@H]1C[C@@H](Nc2ncncc2C(=O)c2cc([C@@H]3NCCc4ccc(Cl)cc43)c(Cl)o2)C[C@@H]1O (single isomer, unassigned) [I-299b, {(1R,2S,4R)-4-[(5-{5-chloro-4-[(1R)-7-chloro-1,2,3,4-tetrahydroisoquinolin-1-yl]-2-furoyl}pyrimidin-4-yl)amino]-2-hydroxycyclopentyl}methyl sulfamate or {(1R,2S,4R)-4-[(5-{5-chloro-4-[(1S)-7-chloro-1,2,3,4-tetrahydroisoquinolin-1-yl]-2-furoyl}pyrimidin-4-yl)amino]-2-hydroxycyclopentyl}methyl sulfamate]",93%,< 10 nM
"Cc1sc(C(=O)c2cncnc2N[C@@H]2C[C@H](COS(N)(=O)=O)[C@@H](O)C2)nc1C1OCCc2ccc(Cl)cc21 (single isomer, unassigned) [I-300a, [(1R,2S,4R)-4-{[5-({4-[(1R)-7-chloro-3,4-dihydro-1H-isochromen-1-yl]-5-methyl-1,3-thiazol-2-yl}carbonyl)pyrimidin-4-yl]amino}-2-hydroxycyclopentyl]methyl sulfamate or [(1R,2S,4R)-4-{[5-({4-[(1S)-7-chloro-3,4-dihydro-1H-isochromen-1-yl]-5-methyl-1,3-thiazol-2-yl}carbonyl)pyrimidin-4-yl]amino}-2-hydroxycyclopentyl]methyl sulfamate]",26%,100 to 1000 nM
"Cc1sc(C(=O)c2cncnc2N[C@@H]2C[C@H](COS(N)(=O)=O)[C@@H](O)C2)nc1C1OCCc2ccc(Cl)cc21 (single isomer, unassigned) [I-300b, [(1R,2S,4R)-4-{[5-({4-[(1R)-7-chloro-3,4-dihydro-1H-isochromen-1-yl]-5-methyl-1,3-thiazol-2-yl}carbonyl)pyrimidin-4-yl]amino}-2-hydroxycyclopentyl]methyl sulfamate or [(1R,2S,4R)-4-{[5-({4-[(1S)-7-chloro-3,4-dihydro-1H-isochromen-1-yl]-5-methyl-1,3-thiazol-2-yl}carbonyl)pyrimidin-4-yl]amino}-2-hydroxycyclopentyl]methyl sulfamate]",101%,< 10 nM
"NS(=O)(=O)OC[C@H]1C[C@@H](Nc2ncncc2C(=O)c2cc([C@@H]3OCCc4c(Cl)cccc43)cs2)C[C@@H]1O (single isomer, unassigned) [I-301a, [(1R,2S,4R)-4-{[5-({4-[(1R)-5-chloro-3,4-dihydro-1H-isochromen-1-yl]-2-thienyl}carbonyl)pyrimidin-4-yl]amino}-2-hydroxycyclopentyl]methyl sulfamate or [(1R,2S,4R)-4-{[5-({4-[(1S)-5-chloro-3,4-dihydro-1H-isochromen-1-yl]-2-thienyl}carbonyl)pyrimidin-4-yl]amino}-2-hydroxycyclopentyl]methyl sulfamate]",40%,100 to 1000 nM
"NS(=O)(=O)OC[C@H]1C[C@@H](Nc2ncncc2C(=O)c2cc([C@@H]3OCCc4c(Cl)cccc43)cs2)C[C@@H]1O (single isomer, unassigned) [I-301b, [(1R,2S,4R)-4-{[5-({4-[(1R)-5-chloro-3,4-dihydro-1H-isochromen-1-yl]-2-thienyl}carbonyl)pyrimidin-4-yl]amino}-2-hydroxycyclopentyl]methyl sulfamate or [(1R,2S,4R)-4-{[5-({4-[(1S)-5-chloro-3,4-dihydro-1H-isochromen-1-yl]-2-thienyl}carbonyl)pyrimidin-4-yl]amino}-2-hydroxycyclopentyl]methyl sulfamate]",100%,< 10 nM
"Cc1nc2c(s1)[C@H](c1cc(C(=O)c3cncnc3N[C@@H]3C[C@H](COS(N)(=O)=O)[C@@H](O)C3)sc1C)OCC2 (single isomer, unassigned) [I-305a, [(1R,2S,4R)-2-hydroxy-4-{[5-({5-methyl-4-[(4S)-2-methyl-6,7-dihydro-4H-pyrano[4,3-d][1,3]thiazol-4-yl]-2-thienyl}carbonyl)pyrimidin-4-yl]amino}cyclopentyl]methyl sulfamate or [(1R,2S,4R)-2-hydroxy-4-{[5-({5-methyl-4-[(4R)-2-methyl-6,7-dihydro-4H-pyrano[4,3-d][1,3]thiazol-4-yl]-2-thienyl}carbonyl)pyrimidin-4-yl]amino}cyclopentyl]methyl sulfamate]",28%,100 to 1000 nM
"Cc1nc2c(s1)[C@H](c1cc(C(=O)c3cncnc3N[C@@H]3C[C@H](COS(N)(=O)=O)[C@@H](O)C3)sc1C)OCC2 (single isomer, unassigned) [I-305b, [(1R,2S,4R)-2-hydroxy-4-{[5-({5-methyl-4-[(4S)-2-methyl-6,7-dihydro-4H-pyrano[4,3-d][1,3]thiazol-4-yl]-2-thienyl}carbonyl)pyrimidin-4-yl]amino}cyclopentyl]methyl sulfamate or [(1R,2S,4R)-2-hydroxy-4-{[5-({5-methyl-4-[(4R)-2-methyl-6,7-dihydro-4H-pyrano[4,3-d][1,3]thiazol-4-yl]-2-thienyl}carbonyl)pyrimidin-4-yl]amino}cyclopentyl]methyl sulfamate]",98%,< 10 nM
"CN1CCc2ccc(Cl)cc2[C@@H]1c1csc(C(=O)c2cncnc2N[C@@H]2C[C@H](COS(N)(=O)=O)[C@@H](O)C2)c1 (single isomer, unassigned) [I-307a, [(1R,2S,4R)-4-{[5-({4-[(1R)-7-chloro-2-methyl-1,2,3,4-tetrahydroisoquinolin-1-yl]-2-thienyl}carbonyl)pyrimidin-4-yl]amino}-2-hydroxycyclopentyl]methyl sulfamate or [(1R,2S,4R)-4-{[5-({4-[(1S)-7-chloro-2-methyl-1,2,3,4-tetrahydroisoquinolin-1-yl]-2-thienyl}carbonyl)pyrimidin-4-yl]amino}-2-hydroxycyclopentyl]methyl sulfamate]",45%,100 to 1000 nM
"CN1CCc2ccc(Cl)cc2[C@@H]1c1csc(C(=O)c2cncnc2N[C@@H]2C[C@H](COS(N)(=O)=O)[C@@H](O)C2)c1 (single isomer, unassigned) [I-307b, [(1R,2S,4R)-4-{[5-({4-[(1R)-7-chloro-2-methyl-1,2,3,4-tetrahydroisoquinolin-1-yl]-2-thienyl}carbonyl)pyrimidin-4-yl]amino}-2-hydroxycyclopentyl]methyl sulfamate or [(1R,2S,4R)-4-{[5-({4-[(1S)-7-chloro-2-methyl-1,2,3,4-tetrahydroisoquinolin-1-yl]-2-thienyl}carbonyl)pyrimidin-4-yl]amino}-2-hydroxycyclopentyl]methyl sulfamate]",97%,< 10 nM
